Test results reported in the supplement of paper PMC10307832.

Columns and labels:
Assay in all cases: relative viability (nuclei count vs DMSO), 5 days (fraction); higher = more cells survive
Metformin + Linsitinib = compound: CN(C)C(=N)NC(=N)N [Metformin] + C[C@]1(O)C[C@@H](c2nc(-c3ccc4ccc(-c5ccccc5)nc4c3)c3c(N)nccn32)C1 [Linsitinib] (partner 1 µM)
Outline: (§1)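 Nuclei were stained with Hoechst during a one-step fixation (final 0.05% Triton X-100, 1% formaldehyde, 1 ug/ml Hoechst) carried out 5 days after dosing, then counted on 4× images. The cells, lung cancer lines in 1536-well plates, had been dosed by pin tool the day after seeding with one drug alone or a fixed anchor-drug dose plus five library-drug doses (not always all listed) in √10 steps. Relative viability is the nuclei count in treated wells divided by that in vehicle wells, and each value is the median of duplicate plates.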

Metformin + Trametinib = compound: CN(C)C(=N)NC(=N)N [Metformin] + CC(=O)Nc1cccc(-n2c(=O)n(C3CC3)c(=O)c3c(Nc4ccc(I)cc4F)n(C)c(=O)c(C)c32)c1 [Trametinib] (partner 0.02 µM)
Outline: as §1

Metformin + Navitoclax = compound: CN(C)C(=N)NC(=N)N [Metformin] + CC1(C)CCC(c2ccc(Cl)cc2)=C(CN2CCN(c3ccc(C(=O)NS(=O)(=O)c4ccc(N[C@H](CCN5CCOCC5)CSc5ccccc5)c(S(=O)(=O)C(F)(F)F)c4)cc3)CC2)C1 [Navitoclax] (partner 0.5 µM)
Outline: as §1

Metformin + Palbociclib = compound: CN(C)C(=N)NC(=N)N [Metformin] + CC(=O)c1c(C)c2cnc(Nc3ccc(N4CCNCC4)cn3)nc2n(C2CCCC2)c1=O [Palbociclib] (partner 0.5 µM)
Outline: as §1

Row | Cell Line | relative viability (Metformin + Linsitinib; first compound 10 µM) | relative viability (Metformin + Linsitinib; first compound 31.62 µM) | relative viability (Metformin + Linsitinib; first compound 100 µM) | relative viability (Metformin + Linsitinib; first compound 316.23 µM) | relative viability (Metformin + Linsitinib; first compound 1000 µM) | relative viability (Metformin + Trametinib; first compound 10 µM) | relative viability (Metformin + Trametinib; first compound 31.62 µM) | relative viability (Metformin + Trametinib; first compound 100 µM) | relative viability (Metformin + Trametinib; first compound 316.23 µM) | relative viability (Metformin + Trametinib; first compound 1000 µM) | relative viability (Metformin + Navitoclax; first compound 10 µM) | relative viability (Metformin + Navitoclax; first compound 31.62 µM) | relative viability (Metformin + Navitoclax; first compound 100 µM) | relative viability (Metformin + Navitoclax; first compound 316.23 µM) | relative viability (Metformin + Navitoclax; first compound 1000 µM) | relative viability (Metformin + Palbociclib; first compound 10 µM) | relative viability (Metformin + Palbociclib; first compound 31.62 µM) | relative viability (Metformin + Palbociclib; first compound 100 µM) | relative viability (Metformin + Palbociclib; first compound 316.23 µM) | relative viability (Metformin + Palbociclib; first compound 1000 µM)
1 | LU99A | 0.493 | 0.491 | 0.466 | 0.377 | 0.514 | 0.524 | 0.482 | 0.544 | 0.433 | 0.448 | 0.693 | 0.743 | 0.677 | 0.814 | 0.749 | 0.387 | 0.352 | 0.347 | 0.35 | 0.31
2 | NCI-H358 | 1.04 | 0.937 | 0.959 | 1.13 | 1.31 | 0.12 | 0.128 | 0.139 | 0.137 | 0.157 |  |  |  |  |  | 0.114 | 0.125 | 0.122 | 0.138 | 0.141
3 | NCI-H522 |  |  |  |  |  | 1.07 | 0.749 | 0.725 | 0.899 | 1.21 |  |  |  |  |  | 1.7 | 1.24 | 1.06 | 1.08 | 1.21
4 | NCI-H596 | 1.11 | 1.18 | 1.32 | 1.08 | 1.25 | 0.965 | 0.899 | 1.01 | 0.706 | 0.872 | 0.985 | 1.15 | 1.1 | 0.908 | 1 |  |  |  |  | 
5 | NCI-H650 | 0.859 | 0.955 | 0.845 | 0.983 | 1.3 | 1.09 | 1 | 1.06 | 0.817 | 0.94 |  |  |  |  |  | 0.33 | 0.278 | 0.385 | 0.326 | 0.348
6 | NCI-H661 | 0.761 | 0.966 | 0.812 | 0.767 | 0.677 | 0.54 | 0.643 | 0.575 | 0.527 | 0.586 |  |  |  |  |  | 0.382 | 0.391 | 0.371 | 0.37 | 0.365
7 | NCI-H1299 | 1.03 | 1.04 | 1 | 0.958 | 0.974 |  |  |  |  |  | 1.12 | 1.11 | 1.15 | 1.15 | 1.12 |  |  |  |  | 
8 | NCI-H1563 | 1.22 | 1.34 | 1.19 | 0.955 | 0.893 |  |  |  |  |  |  |  |  |  |  |  |  |  |  | 
9 | NCI-H1648 |  |  |  |  |  |  | 0.553 | 0.68 | 0.53 | 0.73 |  |  |  |  |  |  | 0.299 | 0.296 | 0.294 | 0.294
10 | NCI-H1650 |  |  |  |  |  | 0.597 | 0.602 | 0.718 | 0.474 | 0.458 | 1.16 | 1.34 | 1.46 | 1.37 | 1.1 | 0.316 | 0.381 | 0.424 | 0.229 | 0.305
11 | NCI-H1703 | 1.41 | 0.892 | 0.832 | 0.485 | 0.599 |  |  |  |  |  | 1.18 | 1.15 | 1.16 | 0.854 | 0.735 |  |  |  |  | 
12 | NCI-H2170 |  |  |  |  |  | 0.789 | 0.779 | 0.903 | 0.869 | 0.945 | 0.579 | 0.526 | 0.575 | 0.497 | 0.507 | 0.334 | 0.389 | 0.386 | 0.354 | 0.391
13 | NCI-H2342 |  |  |  |  |  |  | 0.773 | 0.9 | 0.823 | 0.801 |  |  |  |  |  |  | 0.681 | 0.548 | 0.522 | 0.519
14 | SW 900 |  |  |  |  |  | 1.09 | 1.07 |  | 0.825 | 1.2 |  |  |  |  |  | 0.542 | 0.536 |  | 0.497 | 0.578
